In one series the target is N-terminal CA (N-CA) (Human immunodeficiency virus type 1 group M subtype B, UniProt P04591). As to conditions: read-out: affinity (Kd) to N-terminal CA (N-CA); cited from earlier work.
Series [1] addresses T1, C-terminal CA (C-CA) of capsid (Human immunodeficiency virus type 1 group M subtype B, UniProt P04591).
T1 construct: targeting the C-terminal CA (C-CA) of capsid
As to conditions: estimated, read-out: dissociation constant (Kd); cited from earlier work.

The nature of series [2]: Circular dichroism, secondary structure in solution. As to conditions: 20° C., Tris-HCl buffer pH 8.0, 1-15% acetonitrile. Format: physicochemical. The procedure:
We used circular dichroism (CD) to characterize the secondary structure of NYAD-1 and CAI in the uncomplexed state in solution. CD spectra were obtained on a Jasco J-715 Spectropolarimeter (Jasco Inc.) at 20° C. using the standard measurement parameters in Tris-HCl buffer (20 mM Tris, pH 8.0) in the presence of 1-15% (v/v) acetonitrile at a final concentration of 125-500 μM. In all the samples, the final concentrations of peptides and salt were always the same, and the spectra were corrected by subtracting the CD spectra of the appropriate reference solvent. Percent α-helix was calculated from molar ellipticity value at 222 nm.
The CD spectra were measured at 25° C. in 1×PBS in the presence of 1-20% (v/v) acetonitrile at a final concentration of peptide of 100 μM.
We used CD spectroscopy to determine the secondary structure characteristics of the stapled peptide NYAD-36. The corresponding linear peptide, NYAD-41, was used as control.

A word on the Kd: it is the constant that tells how readily two partners part at equilibrium. Regarding `Cc1ccc(NC(=O)NCCSCc2ccc(CN(C)C)o2)cc1Cl` [CAP-1], the Kd on N-terminal CA (N-CA) was roughly 800 µM.

In the case of ITFEDLLDYYGP [CAI], the Kd in series [1] was roughly 15 µM. Further, in series [2], the “secondary structure in solution by CD” value is reported as “random coil structure”.

Source of the values: patent US8937154B2, “Stabilized therapeutic small helical antiviral peptides” (priority 2006, dated 2015).
